Results: patent US20210078972A1, “QUINOLINE OR QUINAZOLINE COMPOUND AND APPLICATION THEREOF” (HAIHE BIOPHARMA CO., LTD., priority 2018, published 2021)
pIC50: −log10 of the molar value.

Assays:
[1] = tested on: Mixed primary male beagle canine hepatocytes; experiment: Metabolism in canine hepatocytes, UPLC-UV/Q-TOF MS; type: in vitro ADME; settings: 180 min
Method: (§1) In this example, a UPLC-UV/Q-TOF MS method was used to evaluate the differences in the metabolic processes of TL134 in hepatocytes of five species of human, monkey, canine, rat, and mouse.
(§2) The total volume of each incubation sample was 100 μL, the medium was WME medium (pH 7.4), and the incubation sample included hepatocytes with a cell density of 1.0×10^6 cells/mL and TL134 with a final concentration of 3.0 μM; the negative control sample was incubated with thermal-inactivated mixed hepatocytes (without cell counting) of five species of animals and TL134, and the buffer control sample was incubated with WME medium and TL134. All samples were incubated at 37° C. for 180 min, and then 100 μL of ice-cold acetonitrile was added to stop the reaction. The samples were stored at −70° C. for ready to be tested, and all incubation samples were double samples.
(§3) Triple TOF 5600′ quadrupole-time-of-flight tandem mass spectrometer (Q-TOF MS), equipped with electrospray ionization source (ESI source) and CDS automatic calibration system, AB SCIEX Company, USA; Acquity UPLC liquid chromatography system, including binary infusion pump, autosampler, column oven, degasser and TUV ultraviolet detector, Waters Company, USA. […]

Flt3 kinase = biological target: T1, Flt3 kinase (Homo sapiens, UniProt P36888); experiment: Flt3 kinase inhibition, Z'-LYTE FRET; type: biochemical; settings: ATP 500 μM
T1 construct: purchased life PV6253
T1 sequence (P36888 27-993): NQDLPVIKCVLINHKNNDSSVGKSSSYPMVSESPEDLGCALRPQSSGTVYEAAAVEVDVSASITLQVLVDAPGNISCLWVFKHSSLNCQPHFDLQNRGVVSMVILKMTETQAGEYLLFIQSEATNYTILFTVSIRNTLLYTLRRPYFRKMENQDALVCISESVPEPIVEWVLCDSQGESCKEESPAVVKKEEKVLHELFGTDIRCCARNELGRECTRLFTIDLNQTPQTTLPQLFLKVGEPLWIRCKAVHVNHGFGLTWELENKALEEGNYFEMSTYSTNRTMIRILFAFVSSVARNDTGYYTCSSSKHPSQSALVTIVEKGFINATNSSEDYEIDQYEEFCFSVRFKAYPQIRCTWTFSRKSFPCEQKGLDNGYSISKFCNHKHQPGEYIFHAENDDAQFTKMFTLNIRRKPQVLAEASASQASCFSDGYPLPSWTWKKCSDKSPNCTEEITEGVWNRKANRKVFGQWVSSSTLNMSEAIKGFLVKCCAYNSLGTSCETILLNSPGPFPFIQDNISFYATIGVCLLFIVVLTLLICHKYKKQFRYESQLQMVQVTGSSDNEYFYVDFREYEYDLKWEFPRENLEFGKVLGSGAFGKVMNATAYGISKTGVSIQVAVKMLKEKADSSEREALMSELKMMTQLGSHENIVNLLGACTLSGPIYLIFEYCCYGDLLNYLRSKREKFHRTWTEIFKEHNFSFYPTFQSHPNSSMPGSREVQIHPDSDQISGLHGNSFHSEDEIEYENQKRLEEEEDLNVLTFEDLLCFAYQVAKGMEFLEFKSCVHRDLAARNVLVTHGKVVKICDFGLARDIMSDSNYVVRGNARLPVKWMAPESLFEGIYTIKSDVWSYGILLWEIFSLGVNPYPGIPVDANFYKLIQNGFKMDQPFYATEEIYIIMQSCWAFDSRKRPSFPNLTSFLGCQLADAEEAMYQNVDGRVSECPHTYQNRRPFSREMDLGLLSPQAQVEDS
Source text: Detection of the activity of kinase: the inhibitory activities of the compounds against Flt3 kinase (life, PV6253) were detected through a second-order reaction by the Z′-LYTE™ technology (detected by fluorescence, enzyme-coupled form, based on the difference in a sensitivity of phosphorylated and non-phosphorylated polypeptides to proteolytic cleavage), based on the principle of fluorescence resonance energy transfer (FRET), using Z′-LYTE™ FRET peptide substrate (Z′-LYTE™ Tyrosine 2 Peptide Substrate, Invitrogen, PV3191).
Enzymatic reaction: To a 384-well plate were added 5 μL of enzyme-substrate system (50 mM HEPES, pH 7.5, 0.01% BRU-35, 10 mM MgC2, 1 mM EGTA), 2.5 μL of a compound (concentration gradient) and 2.5 μL of a mixed solution of ATP (a final concentration of a substrate Z′-LYTE™ Tyrosine 2 Peptide Substrate was 2 μM, and a final concentration of ATP was 500 μM), and then the plate was incubated at 37° C. in the dark for 1 h.
Detecting reaction: 5 μL of Development Solution (1:64 dilution) was added to each well and the plate was incubated at 37° C. in the dark for 1 h, then 5 μL of Stop Reagent was added.
The data analysis method is as follows:
Phosphorylation ratio=1−{(emission ratio×F100%−C100%)/[C0%−C100%+emission ratio×(F100%−F0%)]}×100;
Inhibition rate=100×(1−compound phosphorylation ratio/negative control phosphorylation ratio).
The IC50 values were calculated by GraphPad Prism software.

[2] = tested on: Mixed primary macaca fascicularis hepatocytes; experiment: Metabolism in monkey hepatocytes, UPLC-UV/Q-TOF MS; type: in vitro ADME; settings: 180 min
Method: as §1, §2, §3

Row | prototype drug metabolized, judging from the UV chromatographic peak areas [1] [%] | pIC50 (Flt3 kinase) | prototype drug metabolized, judging from the UV chromatographic peak areas [2] | Compound
1 | ~27.2 | 8.00 | approximately 41.3% | CCc1ccc2c(c1)c(=O)c(C(=O)Nc1ccc(Oc3ncnc4cc(OCCCN5CCOCC5)c(OC)cc34)c(F)c1)c(C)n2C [GDL5000123, 6-ethyl-N-(3-fluoro-4-((6-methoxy-7-(3-morpholinopropoxy)quinazolin-4-yl)oxy)phenyl)-1,2-dime thyl-4-oxo-1,4-dihydroquinoline-3-carboxamide, reference compound]
2 | ~15.4 | 8.72 | ~4.6% | COc1cc2c(Oc3ccc(NC(=O)c4c(C)n(C)c5ccc(OC(F)(F)F)cc5c4=O)cc3F)ncnc2cc1OCCCN1CCOCC1 [TL-134, N-(3-fluoro-4-((6-methoxy-7-(3-morpholinopropoxy)quinazolin-4-yl)oxy)phenyl)-1,2-dim ethyl-4-oxo-6-(trifluoromethoxy)-1,4-dihydroquinoline-3-carboxamide]
